Measurements published in patent US20170071991A1, “Oncolytic Virus and Aurora Kinase Inhibitor for the Treatment of Cancer” (priority 2014, published 2017).
“Also recorded” adds a separate entry of the source.

How the values were obtained:
[1] = pro-drug; cited from earlier work
[2] = human plasma; cited from earlier work
[3] = test system: human acute myelogenous leukemia (HL60) nude mice xenografts; conditions: cited from earlier work
[4] = test system: human colon cancer (HCT116) nude rat xenograft; conditions: HCT116 nude rat xenograft model; cited from earlier work
[5] = test system: receptors and ion channels; conditions: cited from earlier work
[6] = test system: senescence-associated beta-galactosidase in S462TY xenografts; experiment: Senescence detection with X-gal (SA-β-gal) in S462TY xenografts
[7] = test system: HSV1716 titre in S462TY xenografts; experiment: HSV1716 titration of S462TY xenograft tumours after ITu injection; format: in vivo, mice
From the text: MLN8237-treated or control, untreated mice with S462TY xenografts received ITu HSV1716 and tumours, removed at 2 and 48 hrs after virus administration, were titrated (FIG. 18).

[8] = test system: SK-N-AS flank xenografts (neuroblastoma); experiment: SK-N-AS nude mouse flank xenograft model; format: in vivo, nude mice
From the text: SK-N-AS cells were derived from a bone marrow metastasis […] of a child with poorly differentiated embryonal neuroblastoma and the cell line readily formed flank xenografts in nude mice. […] The schema used for each of the 4 groups is shown in FIG. 13 and tumor growth and survival were monitored throughout the experiment.

S462TY xenografts = experiment: S462TY nude mouse xenograft, multiple cycles of lower dose MLN8237 plus HSV1716; format: in vivo, nude mice; conditions: multiple weekly ITu HSV1716 1×10^7 pfu and/or MLN8237 10 mg/kg once daily 5-day cycles
From the text: The schema used for each of the 4 groups is shown in FIG. 8 and tumor growth and survival were monitored throughout the experiment.

S462TY flank xenografts = experiment: S462TY nude mouse flank xenograft, single HSV1716 dose plus MLN8237 20 mg/kg twice daily; format: in vivo, nude mice
Experimental: Single intratumoral (ITu) injections of 1.0×10^7 pfu HSV1716 or PBS or single intravenous (IV) injections of 9.0×10^7 pfu HSV1716 or PBS were administered on day 7 and tumor growth and survival were monitored.

[9] = test system: multiple tumor cell lines; conditions: values as low as; read-out: GI50, growth of multiple tumor cell lines; cited from earlier work
[10] = cited from earlier work
[11] = test system: HSV1716 uptake by S462TY cells; experiment: Quantitative PCR for HSV1716 genomes in S462TY cells in vitro; format: cell-based; conditions: 30 min post infection, acid wash
Experimental: S462TY cells were infected with HSV1716 and an acid wash after 30 mins was used to remove residual free virus which had not penetrated intracellularly.

[12] = S462TY flank xenografts, best response for at least 21 days, last response day 53, route as in label
[13] = S462TY flank xenografts, day 53, route as in label

## CCN(CCCOc1ccc2c(Nc3cc(CC(=O)Nc4cccc(F)c4)n[nH]3)ncnc2c1)CCOP(=O)(O)O [AZD1152]
[1]
  solubility: highly soluble
[2]
  cleavage of pro-drug to active drug substance AZD1152 hydroxy-QPA: cleaved completely

## Cc1cc(Nc2cc(N3CCN(C)CC3)nc(Sc3ccc(NC(=O)C4CC4)cc3)n2)n[nH]1 [MK0457]
[3]
  reduction in tumor volume when compared with controls: 98%
[4]
  tumor regression, rats treated: four of the seven rats

## COc1cc(Nc2ncc3c(n2)-c2ccc(Cl)cc2C(c2c(F)cccc2OC)=NC3)ccc1C(=O)O [MLN8237]
[5]
  cross-reactivity in broad screen of receptors and ion channels: no significant cross-reactivity
[6]
  sections staining after incubation with X-gal (MLN8237-induced senescence): 1/18
[7]; 2 hrs after ITu HSV1716
  free input virus detected in MLN8237-treated tumours: less of the free input virus detected
[7]; 48 hrs after ITu HSV1716
  virus titre in MLN8237-treated compared to untreated control tumors: no apparent increase in virus titre
[8]; day 21
  tumor growth, comparison between the four groups on day 21 (FIG. 16): highly significant reduction in tumor growth
[8]; day 25, single agents
  mice still alive on day 25: approximately 50%
[8]; five weekly ITu HSV1716 1×10^7 pfu and/or MLN8237 10 mg/kg once daily 5-day cycles
  tumor growth of SK-N-AS xenografts (FIG. 14): reduced the growth
S462TY xenografts
  tumor growth of S462TY xenografts (FIG. 9, 10): reduced the growth
S462TY flank xenografts; HSV1716 single ITu 1.0×10^7 pfu day 7 and/or MLN8237 20 mg/kg oral twice daily, 42 days
  tumor growth of S462TY xenografts (FIG. 5a): initially effective at preventing growth of the xenografts
S462TY flank xenografts; HSV1716 single ITu 1×10^7 pfu day 7 and/or MLN8237 20 mg/kg twice daily
  survival compared to vehicle/PBS-treated controls (FIG. 6): improved survival
S462TY flank xenografts; [12]
  PR-->PD, evaluable mice: 0
  SD-->PD, evaluable mice: 6
S462TY flank xenografts; S462TY flank xenografts, day 53 (11 days after last treatment), MLN8237 20 mg/kg oral twice daily 5 d/week 42 days, HSV1716 single ITu 1.0×10^7 or IV 9.0×10^7 pfu day 7, route as in label
  PD (Progressive Disease), evaluable mice: 4
S462TY flank xenografts; [13]
  CR (Complete Response), evaluable mice: 0
  PR (Partial Response), evaluable mice: 0
S462TY flank xenografts; single agents: IV HSV1716, MLN8237 twice daily doses
  day by which most of the mice had been sacrificed: ≤ 60 days
[9]
  GI50: ≥ 16 nM
[10]
  oral availability and absorption: orally available and rapidly absorbed
[11]
  uptake/infection rate of HSV1716 (intracellular genomes, Q-PCR normalised to GAPDH): significantly increases intracellular HSV1716 genomes; also recorded: significantly higher uptake/infection rate
